Where two headings read alike, the source gives them in different places.
Tests used:
PC3 cells [1] = test: Apoptosis by Annexin V-FITC / propidium iodide staining; format: cell-based, human; details: PC3, 48 h; for % Apoptotic / % Necrotic / % Normal: one analysis only; for induction of apoptosis: one determination, preliminary
Description: The Annexing® V-FITC Apoptosis Detection Kit (BD Biosciences, Franklin Lakes, N.J.) was used PC3 cells were seeded at 65 000 cells per well in 6-well plates with DMEM (high glucose, supplemented with 10% FBS) as media. Plates were incubated (24 h, 37° C., 5% CO2) for cells to attach and then treated with test compound (prepared in same media but with 5% FBS) for 48 h. Final volume of DMSO per well was 0.05% v/v. After the specified time, the supernatant in the well was collected, the cell pellet was trypsinized, combined with the supernatant and pelleted by centrifugation (150 g, 5 min). The pellet was rinsed twice with cold 1×PBS and suspended in the proprietary binding buffer (1×) to give a concentration of 10^6 cells per mL. An aliquot (100 μL) of the suspension containing 10^5 cells was transferred to the FACS tube (5 mL) to which was added Annexin® V-FITC solution (5 μL) and propidium iodide (PI) solution (5 μL). The solution was gently vortexed, incubated in the dark for 15 min at room temperature (25° C.), after which was added 400 μL of the binding buffer (1×). The sample was analyzed immediately or no later than 1 h, in which case it should be kept in ice and protected from light. Analysis was carried out on a FCS500 flow cytometer (Beckman Coulter, CA) using the FlowJo® software (http: http://www.flowjo.com/). Controls comprised untreated cells, cells exposed to Annexin® V-FITC only, and cells exposed to PI only. Each test compound was evaluated at 4 concentrations. Only 1 determination was made per concentration.

Balb/c mice = tested on: Balb/c mice
Description: Animals were given free access to water and standard feed. […] The test compound was administered intraperitoneally using a 23G gauge needle to the animal in a volume of vehicle that was tagged to the body weight, namely 0.2 mL for 20 g animal and so on. The vehicle was formulated from ethanol, PEG 400 (Sigma Aldrich) and 5% dextrose (Sigma Aldrich) in the ratio 1:6:3. The test compound was first dissolved in ethanol, PEG400 was added and the solution was vortexed, followed by 5% dextrose and further vortexing. The solutions were freshly prepared before administration.

[2] = tested on: Human lung fibroblast IMR90 cells; test: Cell viability on non-malignant cells (MTS, 72 h); format: cell-based
Description: Cell viability was determined from the expression:
The plot was constrained to ≧0 and ≦100%.
Human lung fibroblast IMR90 cells were purchased from ATCC (Rockville, Md.) and grown in Eagle's Minimal Essential Media (EMEM, Sigma Aldrich, Singapore) at 37° C., 5% CO2. […] Seeding density was maintained at 4000 cells per well.

PC3 cells [3] = test: Colony formation (clonogenic) assay; format: cell-based, human; details: PC3, 2 weeks; 8-12 1-3 μM, cysmethynil 15-25 μM
Description: A flask ([…]) of PC3 cells in media (DMEM high glucose, 10% fetal bovine serum, 50 μg/mL penicillin, 50 μg/mL streptomycin) was grown to 80-90% confluency. The media was removed by pipetting and the cell layer washed with 1×PBS (5 mL). An aliquot of trypsin (1 mL, 0.25% trypsin-EDTA (1×)-phenol red, Invitrogen) was added to the plate, tapped gently for even distribution and incubated at 37° C., 5% CO2 for 1 min. The plate was quickly viewed under the microscope to confirm that cells have rounded up. Media (10 mL) was then added and the cell suspension transferred to a falcon tube (15 mL). An aliquot (10 μl) was transferred to a hemocytometer for cell counting. The suspension was then diluted to give the desired seeding concentration of 1000 cells per well in a 6-well plate. After seeding, the plate was gently tapped to help cells spread out within the wells. Plates were then incubated for 2 h (37° C., 5% CO2) for cell attachment to take place. The media was removed with a pipette, the cell layer in the well washed with PBS and replaced by a solution of the test compound in 2 mL of DMEM (containing 5% FBS, instead of 10% FBS). Test compounds were prepared in DMSO stock solutions. The final concentration of DMSO in the well was 0.05% v/v. Control plates were also prepared in which no test compound was added but with DMSO maintained at 0.05%. […]

PC3 cells [4] = test: In vitro scratch assay (cell migration); format: cell-based, human; details: PC3, 24 h
Description: PC3 cells were seeded at 100 000 cells per well in a 6-well plate in media (DMEM, high glucose, 10% FBS, 50 μg/mL penicillin, 50 μg/mL streptomycin) and incubated (37° C., 5% CO2) for 36 hours until confluent. The cell monolayer was scraped in a straight line with a 1 mL pipette tip to create a “scratch” which was also marked at the bottom of the plate with a marker pen. The media was removed from the well which was then washed with PBS. Test compound in 2 mL DMEM (high glucose, 5% FBS) was added to each well (DMSO concentration of 0.05% v/v per well) and the plates were incubated at 37° C., 5% CO2. Control wells with PC3 monolayers were similarly treated. Scratches of approximately the same size were made on control and treated wells. Photographs of the scratched surfaces in wells were taken with a microscope fitted with a camera at the start of incubation and after 24 h. Magnification was kept constant at 40× for all acquired images. These were further analyzed by downloading the images into a Powerpoint® file and measuring (on-screen) the distances between one side of the scratch and the other. For each “scratch”, four or five distances were measured across the length of the scratch in the initial (0 h) image and these same distances were monitored after 24 h. Each compound was tested at 3 concentrations with 3 repeats made for each concentration.

[5] = female, Balb/c, mouse, in vivo, ip, 24 h
[6] = IMR-90, further testing, 72 h, mean (SD), read-out: IC50 IMR90

## CCCCCCCCn1cc(CN(CC)CC)c2cc(-c3cnc(N)nc3)ccc21 [Compound 8-12, 5-(3-Diethylaminomethyl-1-octyl-1H-indol-5-yl)-pyrimidin-2-ylamine]
PC3 cells [1]; 0.4 μM
  % Apoptotic: 1.45%
  % Necrotic: 4.95%
  % Normal: 93.6%
PC3 cells [1]; 0.8 μM
  % Apoptotic: 1.31%
  % Necrotic: 6.85%
  % Normal: 91.8%
PC3 cells [1]; 1.0 μM
  % Apoptotic: 0.71%
  % Necrotic: 8.84%
  % Normal: 90.4%
PC3 cells [1]; 1.2 μM
  % Apoptotic: 0.93%
  % Necrotic: 7.43%
  % Normal: 91.6%
PC3 cells [1]
  induction of apoptosis: Induction of apoptosis was also not observed
Balb/c mice; [5]
  tolerability: well tolerated at 10, 20 and 50 mg/kg
Balb/c mice; mice, IP
  apparent maximal tolerated dose: 100 mg/kg
[2]; IMR-90, Table 6, mean (SD), read-out: IC50 (μM) IMR90
  IC50: 2.65 µM
[2]; [6]
  IC50: 2.65 µM
PC3 cells [3]
  colony formation: colony formation was evident only at the lowest concentration of 1 μM and not at higher concentrations (1.5 to 3 μM)
PC3 cells [4]
  gap closure in scratch assay: the gap remained “open” at 2 and 2.5 μM but closed to some extent at a lower concentration of 1.5 μM

## CCCCCCCCn1c2c(c3cc(-c4cnc(N)nc4)ccc31)CN(C)CC2 [Compound 305, 8-(2′-amino-pyrimidin-5′-yl)-2-methyl-5-n-octyl-1,2,3,4-tetrahydropyrido[4,3-b]indole]
[2]; [6]
  IC50: 5.29 µM

## CCCCCCCCn1cc(CC(N)=O)c2cc(-c3cccc(C)c3)ccc21 [Cysmethynil, 2-[5-(3-methylphenyl)-1-octyl-1H-indolo-3-yl]acetamide, reference compound]
PC3 cells [1]; 12.5 μM
  % Apoptotic: 0.92%
  % Necrotic: 6.94%
  % Normal: 92.1%
PC3 cells [1]; 17.5 μM
  % Apoptotic: 1.96%
  % Necrotic: 8.33%
  % Normal: 89.7%
PC3 cells [1]; 20.0 μM
  % Apoptotic: 1.23%
  % Necrotic: 8.06%
  % Normal: 90.7%
PC3 cells [1]; 22.5 μM
  % Apoptotic: 1.21%
  % Normal: 89.6%
PC3 cells [1]
  induction of apoptosis: not found to induce apoptosis
Balb/c mice; [5]
  maximal tolerated dose: exceeded 100 kg/kg
Balb/c mice; mouse, in vivo, ip
  tolerability: well tolerated at all doses
PC3 cells [3]
  colony formation: Colony formation was observed with 15 μM cysmethynil but not at higher concentrations (17.5 to 25 μM)
PC3 cells [4]
  gap closure in scratch assay: the gap closed to some degree in the presence of 17.5 and 20 μM cysmethynil after 24 h, but remained open in cells treated with 22.5 μM cysmethynil
